{"source": "DBAASP", "experiment_in_all_cases": "≥ marks a high value that may be exact or a test limit, other limits are often not marked, values filed in µg/mL are converted to µM", "key": {"[1]": {"test_system": "Salmonella typhimurium CCARM 8009"}, "[2]": {"test_system": "Salmonella typhimurium CCARM 8013"}, "[3]": {"test_system": "Pseudomonas aeruginosa ATCC 27853"}, "[4]": {"test_system": "Salmonella typhimurium KCTC 1926"}, "[5]": {"test_system": "Staphylococcus aureus ATCC 25923"}, "[6]": {"test_system": "Pseudomonas aeruginosa 3592"}, "[7]": {"test_system": "Staphylococcus aureus CCARM 3114"}, "[8]": {"test_system": "Escherichia coli CCARM 1238"}, "[9]": {"test_system": "Listeria monocytogenes KCTC 3710"}, "Acinetobacter baumannii": {"test_system": "Acinetobacter baumannii"}, "[10]": {"test_system": "Stenotrophomonas maltophilia 2"}, "Aeromonas sobria": {"test_system": "Aeromonas sobria"}, "Vibrio anguillarum": {"test_system": "Vibrio anguillarum"}, "Enterococcus faecium": {"test_system": "Enterococcus faecium"}, "Proteus mirabilis": {"test_system": "Proteus mirabilis"}, "Aeromonas veronii": {"test_system": "Aeromonas veronii"}, "Vibrio harveyi": {"test_system": "Vibrio harveyi"}, "Candida albicans": {"test_system": "Candida albicans"}, "Candida glabrata": {"test_system": "Candida glabrata"}, "Vibrio parahaemolyticus": {"test_system": "Vibrio parahaemolyticus"}, "Staphylococcus aureus 4": {"test_system": "Staphylococcus aureus 4"}, "Pseudomonas aeruginosa": {"test_system": "Pseudomonas aeruginosa"}, "Nocardia asteroides": {"test_system": "Nocardia asteroides"}, "Shigella dysenteriae": {"test_system": "Shigella dysenteriae"}, "Staphylococcus aureus": {"test_system": "Staphylococcus aureus"}, "Staphylococcus aureus 1": {"test_system": "Staphylococcus aureus 1"}, "Escherichia coli 1": {"test_system": "Escherichia coli 1"}, "[11]": {"test_system": "Stenotrophomonas maltophilia"}, "Bacillus cereus": {"test_system": "Bacillus cereus"}, "Candida glabrata 1": {"test_system": "Candida glabrata 1"}, "[12]": {"test_system": "Staphylococcus epidermidis"}, "Escherichia coli": {"test_system": "Escherichia coli"}, "Proteus vulgaris": {"test_system": "Proteus vulgaris"}, "Aeromonas hydrophila": {"test_system": "Aeromonas hydrophila"}, "[13]": {"test_system": "Escherichia coli ATCC 25922"}, "Vibrio cholerae": {"test_system": "Vibrio cholerae"}, "Aspicilia cinerea": {"test_system": "Aspicilia cinerea"}, "Klebsiella pneumoniae": {"test_system": "Klebsiella pneumoniae"}, "[14]": {"test_system": "Salmonella enterica subsp. enterica serovar Paratyphi A"}, "Klebsiella oxytoca": {"test_system": "Klebsiella oxytoca"}, "Bacillus subtilis": {"test_system": "Bacillus subtilis"}, "Enterococcus faecalis": {"test_system": "Enterococcus faecalis"}, "[15]": {"test_system": "Pseudomonas aeruginosa BH02"}, "[16]": {"test_system": "Pseudomonas aeruginosa BH03"}, "[17]": {"test_system": "Pseudomonas aeruginosa BH01"}, "[18]": {"test_system": "Pseudomonas aeruginosa BH04"}, "[19]": {"test_system": "Pseudomonas aeruginosa PAO1"}, "Escherichia coli C25": {"test_system": "Escherichia coli C25"}, "[20]": {"test_system": "Escherichia coli ATCC 12014"}, "[21]": {"test_system": "Salmonella enterica subsp. enterica serovar Typhimurium ATCC BAA-215"}, "[22]": {"test_system": "Enterococcus faecalis FA1"}, "[23]": {"test_system": "Listeria monocytogenes ATCC 15313"}, "[24]": {"test_system": "Bacillus subtilis ATCC 11774"}, "[25]": {"test_system": "Pseudomonas aeruginosa ATCC 10145"}, "[26]": {"test_system": "Porphyromonas gingivalis ATCC 33277"}, "[27]": {"test_system": "Staphylococcus aureus NBRC 13276"}, "[28]": {"test_system": "Escherichia coli NBRC 3972"}, "[29]": {"test_system": "Pseudomonas aeruginosa NBRC 13275"}}, "note": "Several values for one entry are separate records, joined by “and”; a condition that tells them apart may be missing. Identical values can stand only once."}
{"smiles": "CC[C@H](C)[C@H](NC(=O)[C@H](Cc1c[nH]c2ccccc12)NC(=O)[C@H](CCCCN)NC(=O)[C@@H](NC(=O)[C@@H](N)CCCCN)[C@@H](C)CC)C(=O)N[C@@H](CC(C)C)C(=O)N[C@@H](CCCCN)C(=O)N[C@@H](Cc1ccc(O)cc1)C(=O)N[C@@H](Cc1c[nH]c2ccccc12)C(=O)N[C@@H](CCCCN)C(=O)N[C@@H](Cc1c[nH]c2ccccc12)C(=O)N[C@@H](CO)C(=O)O", "note": "[KIKWILKYWKWS]", "values": [{"measurement": "MIC", "setting": "[1]", "result": 8, "unit": "µM"}, {"measurement": "MIC", "setting": "[2]", "result": "16 µM and ≥ 32 µM"}, {"measurement": "MIC", "setting": "[3]", "result": "4 µM and 8 µM"}, {"measurement": "MIC", "setting": "[4]", "result": 2, "unit": "µM"}, {"measurement": "MIC", "setting": "[5]", "result": 0.25, "unit": "µM"}, {"measurement": "MIC", "setting": "[6]", "result": "8 µM and 16 µM"}, {"measurement": "MIC", "setting": "[7]", "result": "16 µM and ≥ 32 µM"}, {"measurement": "MIC", "setting": "[8]", "result": "4 µM and 8 µM"}, {"measurement": "MIC", "setting": "[9]", "result": 4, "unit": "µM"}]}
{"smiles": "CC[C@H](C)[C@H](NC(=O)CNC(=O)[C@H](Cc1c[nH]c2ccccc12)NC(=O)CNC(=O)[C@H](C)NC(=O)[C@H](C)NC(=O)[C@H](CCCCN)NC(=O)[C@H](CC(C)C)NC(=O)CNC(=O)CNC(=O)[C@H](CCCN=C(N)N)NC(=O)[C@H](CC(C)C)NC(=O)[C@H](CC(C)C)NC(=O)[C@H](Cc1c[nH]c2ccccc12)NC(=O)[C@H](CC(C)C)NC(=O)[C@H](Cc1c[nH]c2ccccc12)NC(=O)[C@H](CCCN=C(N)N)NC(=O)[C@@H](N)[C@@H](C)O)C(=O)N[C@@H](CCCN=C(N)N)C(=O)N[C@@H](C)C(=O)N[C@@H](Cc1cnc[nH]1)C(=O)N[C@@H](CC(C)C)C(=O)N[C@@H](CC(N)=O)C(=O)N[C@@H](CCCN=C(N)N)C(=O)N[C@@H](CC(N)=O)C(=O)N[C@@H](CCC(N)=O)C(=O)O", "note": "[TRWLWLLRGGLKAAGWGIRAHLNRNQ]", "values": [{"measurement": "MIC", "setting": "Acinetobacter baumannii", "result": "≥ 65.7", "unit": "µM"}, {"measurement": "MIC", "setting": "[10]", "result": 6.16, "unit": "µM"}, {"measurement": "MIC", "setting": "Aeromonas sobria", "result": 12.3, "unit": "µM"}, {"measurement": "MIC", "setting": "Vibrio anguillarum", "result": 6.16, "unit": "µM"}, {"measurement": "MIC", "setting": "Enterococcus faecium", "result": "≥ 65.7", "unit": "µM"}, {"measurement": "MIC", "setting": "Proteus mirabilis", "result": 3.08, "unit": "µM"}, {"measurement": "MIC", "setting": "Aeromonas veronii", "result": 24.6, "unit": "µM"}, {"measurement": "MIC", "setting": "Vibrio harveyi", "result": 12.3, "unit": "µM"}, {"measurement": "MIC", "setting": "[3]", "result": 12.3, "unit": "µM"}, {"measurement": "MIC", "setting": "Candida albicans", "result": "> 65.7", "unit": "µM"}, {"measurement": "MIC", "setting": "Candida glabrata", "result": 12.3, "unit": "µM"}, {"measurement": "MIC", "setting": "Vibrio parahaemolyticus", "result": 12.3, "unit": "µM"}, {"measurement": "MIC", "setting": "Staphylococcus aureus 4", "result": 3.08, "unit": "µM"}, {"measurement": "MIC", "setting": "Pseudomonas aeruginosa", "result": 6.16, "unit": "µM"}, {"measurement": "MIC", "setting": "Nocardia asteroides", "result": 6.16, "unit": "µM"}, {"measurement": "MIC", "setting": "Shigella dysenteriae", "result": 12.3, "unit": "µM"}, {"measurement": "MIC", "setting": "Staphylococcus aureus", "result": 12.3, "unit": "µM"}, {"measurement": "MIC", "setting": "Staphylococcus aureus 1", "result": "≥ 65.7", "unit": "µM"}, {"measurement": "MIC", "setting": "Escherichia coli 1", "result": 1.54, "unit": "µM"}, {"measurement": "MIC", "setting": "[11]", "result": "≥ 65.7", "unit": "µM"}, {"measurement": "MIC", "setting": "Bacillus cereus", "result": "≥ 65.7", "unit": "µM"}, {"measurement": "MIC", "setting": "Candida glabrata 1", "result": "≥ 65.7", "unit": "µM"}, {"measurement": "MIC", "setting": "[12]", "result": "≥ 65.7", "unit": "µM"}, {"measurement": "MIC", "setting": "[5]", "result": "> 65.7", "unit": "µM"}, {"measurement": "MIC", "setting": "Escherichia coli", "result": 4.36, "unit": "µM"}, {"measurement": "MIC", "setting": "Proteus vulgaris", "result": "≥ 65.7", "unit": "µM"}, {"measurement": "MIC", "setting": "Aeromonas hydrophila", "result": 12.3, "unit": "µM"}, {"measurement": "MIC", "setting": "[13]", "result": 3.08, "unit": "µM"}, {"measurement": "MIC", "setting": "Vibrio cholerae", "result": 12.3, "unit": "µM"}, {"measurement": "MIC", "setting": "Aspicilia cinerea", "result": "≥ 65.7", "unit": "µM"}, {"measurement": "MIC", "setting": "Klebsiella pneumoniae", "result": 3.08, "unit": "µM"}, {"measurement": "MIC", "setting": "[14]", "result": 12.3, "unit": "µM"}, {"measurement": "MIC", "setting": "Klebsiella oxytoca", "result": "≥ 65.7", "unit": "µM"}, {"measurement": "MIC", "setting": "Bacillus subtilis", "result": 3.08, "unit": "µM"}, {"measurement": "MIC", "setting": "Enterococcus faecalis", "result": "≥ 65.7", "unit": "µM"}]}
{"smiles": "CC(=O)N[C@@H](CCC(=O)O)C(=O)N[C@@H](CCC(=O)O)C(=O)N[C@@H](CCC(=O)O)C(=O)N[C@@H](CCC(=O)O)C(=O)N[C@@H](C)C(=O)N[C@@H](C)C(=O)N[C@@H](C)C(=O)NCC(=O)N[C@@H](Cc1c[nH]c2ccccc12)C(=O)NCC(=O)N[C@@H](CC(C)C)C(=O)N[C@@H](CCCN=C(N)N)C(=O)N[C@@H](CCCN=C(N)N)C(=O)N[C@@H](CC(C)C)C(=O)N[C@@H](CC(C)C)C(=O)N[C@@H](CCCCN)C(=O)N[C@@H](Cc1ccc(O)cc1)C(=O)NCC(=O)N[C@@H](CCCCN)C(=O)N[C@@H](CCCN=C(N)N)C(=O)N[C@@H](CO)C(N)=O", "note": "[EEEEAAAGWGLRRLLKYGKRS]", "values": [{"measurement": "MIC", "setting": "[15]", "result": 26.4, "unit": "µM"}, {"measurement": "MIC", "setting": "[16]", "result": 26.4, "unit": "µM"}, {"measurement": "MIC", "setting": "[17]", "result": 26.4, "unit": "µM"}, {"measurement": "MIC", "setting": "[18]", "result": 26.4, "unit": "µM"}, {"measurement": "MIC", "setting": "[19]", "result": 26.4, "unit": "µM"}]}
{"smiles": "CC[C@H](C)[C@H](NC(=O)CNC(=O)[C@H](CCCN=C(N)N)NC(=O)[C@H](Cc1ccc(O)cc1)NC(=O)[C@@H](NC(=O)[C@H](CCCN=C(N)N)NC(=O)[C@H](Cc1ccccc1)NC(=O)[C@H](Cc1c[nH]c2ccccc12)NC(=O)[C@@H](N)CCCCN)C(C)C)C(=O)N[C@@H](Cc1ccc(O)cc1)C(=O)N[C@@H](CCCN=C(N)N)C(=O)N[C@@H](CCCN=C(N)N)C(=O)N[C@@H](CCCN=C(N)N)C(N)=O", "note": "[KWFRVYRGIYRRR]", "values": [{"measurement": "MIC", "setting": "Escherichia coli C25", "result": 7.1, "unit": "µM"}, {"measurement": "MIC", "setting": "[20]", "result": 3.37, "unit": "µM"}, {"measurement": "MIC", "setting": "[21]", "result": 6.73, "unit": "µM"}, {"measurement": "MIC", "setting": "[22]", "result": "≥ 53.9", "unit": "µM"}, {"measurement": "MIC", "setting": "[23]", "result": 6.73, "unit": "µM"}, {"measurement": "MIC", "setting": "[24]", "result": "≥ 108", "unit": "µM"}, {"measurement": "MIC", "setting": "[5]", "result": 14, "unit": "µM"}, {"measurement": "MIC", "setting": "[25]", "result": 6.73, "unit": "µM"}, {"measurement": "MIC", "setting": "[26]", "result": 1.68, "unit": "µM"}]}
{"smiles": "CC(=O)N[C@@H](CCCCN)C(=O)N[C@@H](CCCCN)C(=O)N[C@@H](C)C(=O)N[C@@H](CCCCN)C(=O)N[C@@H](CCCCN)C(=O)N[C@@H](C)C(=O)N[C@@H](CCCCN)C(=O)N[C@@H](CCCCN)C(=O)N[C@@H](C)C(N)=O", "note": "[KKAKKAKKA]", "values": [{"measurement": "MIC", "setting": "[27]", "result": "≥ 800", "unit": "µM"}, {"measurement": "MIC", "setting": "[28]", "result": "≥ 800", "unit": "µM"}, {"measurement": "MIC", "setting": "[29]", "result": "≥ 800", "unit": "µM"}]}
